We go through 2 compounds from patent US8685538B2, “Stable polyelectrolyte coated nanoparticles” (Northeastern University, priority 2009, dated 2014).

Structures are written as SMILES.

This series can be described thus: Zeta potential (surface potential) measurement after each polyelectrolyte coating. The class given is physicochemical. The procedure: 5 mg paclitaxel or atavoquone was dissolved in 5 mL of a 60% ethanol/water or a 60% acetone/water solution in a glass tube. This solution was ultrasonicated at 100% amplitude for 2 min, and then 1 mL of a 5 mg/mL polylysine, polyethylenimine, or protomine sulphate solution was added. This was then ultrasonicated for 1 min while adding water at certain speeds and volumes (e.g., 1 mL/min until 5 mL to 10 mL was reached). This was then ultrasonicated for another 30 min. After sonication, the zeta potential of the sample was measured to assure recharging of the formed paclitaxel nanocrystals to positive. Layer-by-layer (LbL) coating with 2 layers of BSA/PS (bovine serum albumin/protamine sulfate) was performed (as described in, e.g., WO2009/012303), followed by SEM readings and measurement of zeta potential.
After each coating, a sample was taken and surface potential was measured using a Zeta potential analyzer.
PAH and PSS were alternately added to the curcumin nanoparticles using the LbL procedure. […] PAH adsorption during nanoparticles synthesis converted the potential to +30±2 mV. Next, anionic PSS adsorption changed the potential to −53±2 mV, followed by +19±2 mV with the addition of PAH, and again to −50±2 mV with the addition of PSS. Therefore, multiple layers of polycations and polyanions, i.e., (PAH/PSS)2, were coated onto the curcumin nanoparticles.

On to `COc1cc(/C=C/C(=O)CC(=O)/C=C/c2ccc(O)c(OC)c2)ccc1O` [bare curcumin microparticles, curcumin], for which, under “bare, initial potential, FIG. 7”, the zeta potential is recorded as −50±2 mV. Turning to `CC(=O)O[C@H]1C(=O)[C@@]2(C)[C@H]([C@H](OC(=O)c3ccccc3)[C@]3(O)C[C@H](OC(=O)[C@H](O)[C@@H](NC(=O)c4ccccc4)c4ccccc4)C(C)=C1C3(C)C)[C@]1(OC(C)=O)CO[C@@H]1C[C@@H]2O` [paclitaxel], the zeta potential result (initial paclitaxel compound, no coating, FIG. 4) is “about −60 mV”.
